Where two headings read alike, the source gives them in different places.
Tests used:
EGLN3 [1] = assay: qRT-PCR of EGLN3 expression in Hep3B cells; format: cell-based, human; settings: for increase of EGLN3 expression relative to DMSO: 50 μM, 12 h, qRT-PCR
Procedure: (§1) 4. Methods for cell studies […]
(§2) in Minimum Essential Medium (MEM, GIBCO) with 10% fetal bovine serum (FBS, BI), 100 U/mL penicillin and 100 μg/mL streptomycin (1 × P/S, NCM Biotech). […]
(§3) and 100 μg/mL streptomycin (1 × P/S, NCM Biotech).
(§4) Quantitative PCR Analysis of Gene Expression […]
(§5) treated with vehicle (DMSO) or an inhibitor (at the concentrations indicated) for 12 h. Total RNA was isolated from cells and tissues using Trizol regents (Vazyme, China). 1 μg RNA was used for reverse transcription using HiScript III RT SuperMix for qPCR (Vazyme, China). cDNAs were amplified in a ChamQ Universal SYBR qPCR Master Mix (Vazyme, China). Quantitative PCR (qPCR) was performed on […]
(§6) a ABI QuantStudio 3 system.
(§7) The relative amount of mRNA was calculated after
(§8) 3T3-L1 derived adipocytes. […]

EGLN3 [2] = assay: qRT-PCR of EGLN3 expression in 786-O cells; format: cell-based; settings: VHL-deficient 786-O cells
Procedure: as §1, §2, §3, §4, §5, §6, §7, §8

CA9 = assay: qRT-PCR of CA9 expression in Hep3B cells; format: cell-based, human; settings: for upregulation of CA9: qPCR, relative to DMSO
Procedure: as §1, §2, §3, §4, §5, §6, §7, §8

SLC2A1 = assay: qRT-PCR of SLC2A1 expression in Hep3B cells; format: cell-based, human; settings: for increase of SLC2A1 levels: qPCR, relative to DMSO
Procedure: as §1, §2, §3, §4, §5, §6, §7, §8

[3] = test system: 3T3-L1 derived adipocytes; assay: Cellular triglyceride (TG) colorimetric assay; format: cell-based
Procedure: as §1, §2
(§9) and 100 μg/mL streptomycin (1 × P/S, NCM Biotech). […]
(§10) 3T3-L1 derived adipocytes.
(§11) 10% newborn calf serum (NCS, GIBCO), 100 U/mL penicillin and 100 μg/mL streptomycin (1 × P/S, NCM […]
(§12) The 3T3-L1 cells were strictly subcultured before they
Subcultures of 3T3 -L1 cells were routinely cultured in DMEM medium containing 10% NCS for two days, and then the cells were cultured in DMEM containing 10% FBS, 0.5 mM 3 -isobutyl-1-methylxanthine, 1 μM dexamethasone, 10 μg/mL insulin and 2 μM rosiglitazone for another two days. Subsequently, the cells were cultured in DMEM containing 10% FBS and 10 μg/mL insulin for two days. After these procedures, the cells were maintained in […]
To investigate the effect of inhibitors on adipocytes, 3T3-L1-derived adipocytes were treated with vehicle (DMSO) or with an inhibitor (at the concentrations indicated) for 48 h. […]
Cellular TG level assay for 3T3 -L1 derived adipocytes.
The 3T3-L1-derived adipocytes were washed with PBS, then the cells were lysed. And then, the cellular TG level was determined by using a cellular triglyceride assay kit (Applygen, China).
Oil Red O staining for 3T3-L1 derived adipocytes.

EPO = assay: qRT-PCR of EPO expression in Hep3B cells; format: cell-based, human; settings: for upregulation of EPO: qPCR, relative to DMSO; for EPO levels in combination with FG-4592 compared with FG-4592 alone: with FG-4592, to a lesser extent than CA9
Procedure: as §1, §2, §3, §4, §5, §6, §7, §8

FIH [4] = molecular target: T1, FIH (Homo sapiens, UniProt Q9NWT6); settings: ESI Table S1; ref 19 (ESI); cited from earlier work
T1 construct: made in house
T1 sequence (Q9NWT6 whole entry): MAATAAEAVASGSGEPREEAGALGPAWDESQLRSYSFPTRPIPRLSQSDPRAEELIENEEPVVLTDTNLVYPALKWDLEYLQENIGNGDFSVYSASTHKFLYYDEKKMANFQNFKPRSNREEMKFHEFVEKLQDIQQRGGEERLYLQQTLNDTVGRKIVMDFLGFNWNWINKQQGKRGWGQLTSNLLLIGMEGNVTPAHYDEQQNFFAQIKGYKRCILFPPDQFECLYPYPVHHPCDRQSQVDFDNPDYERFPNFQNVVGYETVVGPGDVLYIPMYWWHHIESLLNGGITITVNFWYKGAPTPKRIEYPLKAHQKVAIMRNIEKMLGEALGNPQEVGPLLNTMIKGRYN

KDM4A = KDM4A (Homo sapiens, UniProt O75164); assay: biochemical; format: biochemical
Sequence of KDM4A (O75164 1-359): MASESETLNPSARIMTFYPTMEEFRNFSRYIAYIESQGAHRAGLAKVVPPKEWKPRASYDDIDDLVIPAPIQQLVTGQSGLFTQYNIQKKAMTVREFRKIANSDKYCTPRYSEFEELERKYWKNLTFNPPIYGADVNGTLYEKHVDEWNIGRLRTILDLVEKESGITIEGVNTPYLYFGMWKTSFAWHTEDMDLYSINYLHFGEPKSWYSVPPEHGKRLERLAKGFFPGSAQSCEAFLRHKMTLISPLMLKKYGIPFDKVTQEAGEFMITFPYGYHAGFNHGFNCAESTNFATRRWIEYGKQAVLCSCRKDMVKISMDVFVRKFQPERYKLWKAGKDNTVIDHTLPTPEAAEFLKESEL

PHD2 = PHD2 (Homo sapiens, UniProt Q9GZT9); assay: biochemical
Sequence of PHD2 (Q9GZT9 181-426): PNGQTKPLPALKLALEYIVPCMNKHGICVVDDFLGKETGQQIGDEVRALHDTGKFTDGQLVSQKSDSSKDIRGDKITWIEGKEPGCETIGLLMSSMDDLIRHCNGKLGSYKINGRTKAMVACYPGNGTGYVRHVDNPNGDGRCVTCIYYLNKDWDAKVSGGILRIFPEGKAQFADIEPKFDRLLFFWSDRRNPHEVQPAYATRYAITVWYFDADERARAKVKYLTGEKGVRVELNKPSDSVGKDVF

JMJD5 [5] = molecular target: T2, JMJD5 (Homo sapiens, UniProt Q8N371); design: method as in PMID 37292060; settings: cited from earlier work
T2 sequence (Q8N371 whole entry): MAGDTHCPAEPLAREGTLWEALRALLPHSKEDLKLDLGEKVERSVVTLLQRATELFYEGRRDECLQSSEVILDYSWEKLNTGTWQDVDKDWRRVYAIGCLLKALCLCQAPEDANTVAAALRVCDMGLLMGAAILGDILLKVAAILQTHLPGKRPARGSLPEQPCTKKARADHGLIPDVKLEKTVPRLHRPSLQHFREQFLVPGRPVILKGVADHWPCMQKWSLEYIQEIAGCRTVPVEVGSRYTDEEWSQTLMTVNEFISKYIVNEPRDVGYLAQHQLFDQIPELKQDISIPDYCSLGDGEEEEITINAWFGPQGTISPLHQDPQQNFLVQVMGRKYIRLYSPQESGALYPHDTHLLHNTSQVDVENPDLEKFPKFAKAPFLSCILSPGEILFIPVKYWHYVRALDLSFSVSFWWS

AspH [6] = molecular target: T3, AspH (Homo sapiens, UniProt Q12797); settings: cited from earlier work
T3 sequence (Q12797 315-758): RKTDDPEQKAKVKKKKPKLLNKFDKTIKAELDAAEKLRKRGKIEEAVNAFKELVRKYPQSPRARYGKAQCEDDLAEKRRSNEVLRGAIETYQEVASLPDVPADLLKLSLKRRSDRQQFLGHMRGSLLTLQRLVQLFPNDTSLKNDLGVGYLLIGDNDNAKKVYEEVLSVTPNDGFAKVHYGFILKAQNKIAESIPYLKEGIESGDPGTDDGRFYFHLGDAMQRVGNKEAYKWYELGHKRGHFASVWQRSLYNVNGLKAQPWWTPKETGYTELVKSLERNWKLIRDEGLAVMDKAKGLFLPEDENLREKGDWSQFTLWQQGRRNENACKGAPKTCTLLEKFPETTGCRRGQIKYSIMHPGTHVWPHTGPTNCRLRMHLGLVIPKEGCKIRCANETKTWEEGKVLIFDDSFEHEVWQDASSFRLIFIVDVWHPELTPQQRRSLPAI

FIH [7] = molecular target: T1, FIH; assay: SPE-MS FIH inhibition assay; format: biochemical
JMJD5 [8] = molecular target: T2, JMJD5; assay: biochemical; settings: read-out: JMJD5 IC50
AspH [9] = molecular target: T3, AspH; assay: biochemical
[10] = test system: 3T3-L1 derived adipocytes; format: cell-based
Procedure: as §1, §2, §9, §10, §11, §12
Subcultures of 3T3 -L1 cells were routinely cultured in DMEM medium containing 10% NCS for two days, and then the cells were cultured in DMEM containing 10% FBS, 0.5 mM 3 -isobutyl-1-methylxanthine, 1 μM dexamethasone, 10 μg/mL insulin and 2 μM rosiglitazone for another two days. Subsequently, the cells were cultured in DMEM containing 10% FBS and 10 μg/mL insulin for two days. After these procedures, the cells were maintained in DMEM containing 10% FBS. T he last induction procedure was repeated 2 -3 times until lipid droplets […]
Viability Assay for 3T3-L1 derived adipocytes.
To investigate the effect of inhibitors on adipocytes, 3T3-L1-derived adipocytes were treated with vehicle (DMSO) or with an inhibitor (at the concentrations indicated) for 48 h. Cell viability was […]
Microplate Reader (Tecan) at OD 450 nm. […]

COC(=O)C(=O)N[C@H](Cc1ccccc1)C(=O)OC [DM-NOFD, dimethyl N-oxalyl-D-phenylalanine]
increase of EGLN3 expression relative to DMSO (EGLN3 [1]): ~1.8 fold
EGLN3 upregulation on co-administration with FG-4592 relative to compound alone (EGLN3 [1]): no additional effect
effect on EGLN3 gene expression (EGLN3 [2]): upregulation of EGLN3
upregulation of CA9 (CA9): no response
CA9 levels in combination with FG-4592 compared with FG-4592 alone (CA9): increase
increase of SLC2A1 levels (SLC2A1): ~1.3 fold
SLC2A1 gene expression in combination with FG-4592 (SLC2A1): no synergistic effect
effect on TG levels ([3]; 100 μM): no effect
upregulation of EPO (EPO): no response
EPO levels in combination with FG-4592 compared with FG-4592 alone (EPO): increase

Cc1nc(C(=O)NCC(=O)O)c(O)c2ccc(Oc3ccccc3)cc12 [FG-4592]
effect on Hep3B EGLN3 levels (EGLN3 [1]; compound alone): no effect
upregulation of CA9 (CA9): ~8 fold
IC50 (FIH [4]): > 100 µM
increase of SLC2A1 levels (SLC2A1): ~4 fold
upregulation of EPO (EPO): ~7 fold

O=C(O)C(=O)N[C@H](Cc1ccccc1)C(=O)O [NOFD, N-oxalyl-D-phenylalanine, reference compound]
IC50 (KDM4A): 14.1 µM
IC50 (PHD2): > 100 µM
IC50 (JMJD5 [5]): > 100 µM
IC50 (AspH [6]): 15.5 µM

CC[C@H]1[C@@H](O)[C@@H]2[C@H](CC[C@]3(C)[C@@H]([C@H](C)CCC(=O)O)CC[C@@H]23)[C@@]2(C)CC[C@@H](O)C[C@@H]12 [obeticholic acid]
reduction in cellular TG levels ([3]; 20 μM): 25%

O=C(O)CNC(=O)C(=O)O [NOG, N-oxalylglycine, reference compound]
IC50 (KDM4A; 0.15 μM KDM4A, 10.0 μM 2OG, 10.0 μM H3 1–15 K9me3, SPE-MS): 22.1 ± 1.1 µM
IC50 (FIH [7]): 0.36 ± 0.03 µM
IC50 (AspH [6]; SPE-MS, ref [58]): 1.1 ± 0.3 µM

O=C(O)Cc1csc(=NC(=O)C2CCN(S(=O)(=O)Cc3ccccc3)C2)n1O (centres unmarked) [compound 42]
increase of EGLN3 expression relative to DMSO (EGLN3 [1]): ~2.5 fold
EGLN3 upregulation on co-administration with FG-4592 relative to compound alone (EGLN3 [1]): greater increase
IC50 (JMJD5 [8]): 7.2 ± 2.8 µM
IC50 (AspH [9]): 43.1 ± 18.7 µM
IC50 (KDM4A): > 100 µM
effect on EGLN3 gene expression (EGLN3 [2]): upregulation of EGLN3
upregulation of CA9 (CA9): no response
CA9 levels in combination with FG-4592 compared with FG-4592 alone (CA9): increase
cytotoxicity (cell viability) [10]: Neither 42 and 42b exhibited apparent cytotoxicity
IC50 (FIH [7]): 0.28 ± 0.02 µM
FIH inhibition potency relative to 2,4-PDCA (more potent) (FIH [7]; IC50 comparison with 2,4-PDCA): ~10 fold
selectivity for FIH inhibition over AspH inhibition (FIH [7]; as judged by IC50 values): > 100 fold
selectivity for FIH inhibition over JMJD5 inhibition (FIH [7]; as judged by IC50 values): ~25 fold
selectivity for FIH inhibition over KDM4A inhibition (FIH [7]; as judged by IC50 values): > 300 fold
selectivity for FIH inhibition over PHD2 inhibition (FIH [7]; as judged by IC50 values): ~25 fold
increase of SLC2A1 levels (SLC2A1): ~1.5 fold
SLC2A1 gene expression in combination with FG-4592 (SLC2A1): no synergistic effect
reduction in cellular TG levels ([3]; 50 μM): ~30%
upregulation of EPO (EPO): no response
EPO levels in combination with FG-4592 compared with FG-4592 alone (EPO): increase
IC50 (PHD2): 6.9 ± 0.5 µM

Reference: publication PMC10631261 (Chemical Science, 2023)
